The target of one assay is peptide P2. The assay can be described thus: Apparent KD of lead quencher dyes with peptide P2 (quenching of pyrene fluorescence). In kind it is binding. The conditions noted are these: with 5 μM pyrene-labeled peptide P2, 100 mM Tris HCl pH 7.5, inner filter corrected. On the procedure:
KD values were acquired for the set of the ten lead quenchers with peptide P2, in order to obtain a target range for the quencher:peptide ratios to be employed in the subsequent assays (vide infra). These apparent KD values were determined using the quenching of pyrene fluorescence as a barometer of peptide/quencher complex stability. […] An inner filter effect (at high dye concentrations) was corrected as previously described (Levine (1977) Clin. Chem. 23:2292-301).

The target in a further assay is peptide P5. The assay can be described thus: Apparent KD of lead quencher/peptide pair, peptide P5. In kind it is binding.
For assay [1], the target named is phosphorylated P5 peptide. The assay can be described thus: Apparent KD of quencher with phosphorylated P5 peptide. Type of assay: binding.
Procedure: (§1) Varying concentrations of 10 dyes (FIG. 2 Panel B), ranging from 0.5-500 μM, were added to 5 μM pyrene-labeled P2 peptide in 100 mM Tris HCl pH 7.5 buffer (96 well plates). […] After correcting for the inner filter effect, the percentage of quench was plotted against the concentration of the dye. A nonlinear regression analysis fit of the data to the rectangular hyperbola model using the Sigma Plot version 8.02 software was used to obtain apparent KD values.
Assay [2] concerns the target T1, PKA (Mus musculus, UniProt P05132). The assay can be described thus: Control: phosphorylation-induced fluorescence change of pyrene peptides without quenching dye, with 14-3-3τ. In kind it is biochemical, murine. The arrangement: made in house. The conditions noted are these: absence of quenching dye, ATP, 5 μM peptide.
In assay [3] the target is T1, PKA. The assay can be described thus: Fluorescence increase of covalently quenched peptides P13, P14 upon phosphorylation by PKA. Type of assay: biochemical. The conditions noted are these: for change in fluorescence upon phosphorylation by PKA: in the absence of 14-3-3. On the procedure: Pyrene-substituted peptides P13 (FIG. 15 Panel A, SEQ ID NO:21) and P14 (FIG. 15 Panel B, SEQ ID NO:22) were synthesized. […] The assay was performed with a total volume of 200 μL and was initiated with the addition of PKA enzyme. […]

The target of another assay is peptide P9. The assay can be described thus: Apparent KD of lead quencher/peptide pair, peptide P9. The conditions noted are these: read-out: Apparent KD; with peptide P9.

Square brackets hold non-standard residues; d marks the D form. Peptide text beside a SMILES is read from it. * marks the point of attachment. Acetyl(1-pyrenyl) = O=C(Cc1ccc2ccc3cccc4ccc1c2c34)*; Carminic acid = quencher bound covalently; Ala(Pyr) = not defined here; Dap = NC[C@H](N)C(=O)O

The values that follow come from patent publication US20080318246A1, “Deeply quenched enzyme sensors” (The Albert Einstein College of Medicine of Yeshiva …, priority 2007, published 2008).

Procedure for peptide P5: as §1
Procedure for peptide P9: as §1

In the case of `Cc1cc(-c2ccc(/N=N/c3ccc4c(S(=O)(=O)O)cc(S(=O)(=O)O)c(N)c4c3O)c(C)c2)ccc1/N=N/c1ccc2c(S(=O)(=O)O)cc(S(=O)(=O)O)c(N)c2c1O` [D3, Evans Blue], the Kd at peptide P2 turned out to be 2.8 ± 0.8 µM.

Take `Nc1c(S(=O)(=O)O)cc(Nc2ccc(Nc3nc(Cl)nc(Nc4cccc(S(=O)(=O)O)c4)n3)c(S(=O)(=O)O)c2)c2c1C(=O)c1ccccc1C2=O` [D6, Reactive Blue 2]: the Kd at peptide P2 was found to be 19.6 ± 3.4 µM. `O=[N+]([O-])c1ccc2c(N=Nc3ccc4ccccc4c3O)c(O)cc(S(=O)(=O)[O-])c2c1.[Na+]` [D18, Eriochrome Black T]: on peptide P2, the Kd was 14.3 ± 3.3 µM.

Take `Nc1ccc(N=Nc2ccc(-c3ccc(N=Nc4c(S(=O)(=O)[O-])cc5cc(S(=O)(=O)[O-])c(N=Nc6ccccc6)c(O)c5c4N)cc3)cc2)c(N)c1.[Na+].[Na+]` [D34, Chlorazol Black E]: the Kd on peptide P2 is 7.7 ± 1.5 µM. Turning to `O=S(=O)([O-])c1ccc(N=Nc2ccc(N=Nc3c(O)c(S(=O)(=O)[O-])cc4cc(S(=O)(=O)[O-])ccc34)c(S(=O)(=O)[O-])c2)cc1.[Na+].[Na+].[Na+].[Na+]` [D42, Ponceau S], the Kd on peptide P2 amounted to 11.2 ± 2.7 µM. Regarding `O=C([O-])c1c(Cl)c(Cl)c(Cl)c(Cl)c1-c1c2cc(I)c(=O)c(I)c-2oc2c(I)c([O-])c(I)cc12.[Na+].[Na+]` [D43, Rose Bengal], the Kd at peptide P5 (with peptide P5) is 0.4 ± 0.03 µM; on peptide P5 (with unphosphorylated P5 peptide) it was 0.4 ± 0.03 µM; on peptide P2 it was 7.5 ± 1.6 µM; in assay [1], 0.21 ± 0.04 µM. Take `O=C(O)c1nn(-c2ccc(S(=O)(=O)O)cc2)c(O)c1N=Nc1ccc(S(=O)(=O)O)cc1` [D47, Tartrazine]: the Kd on peptide P2 was 15 ± 2.1 µM. For the molecule `Cc1cc(-c2ccc(/N=N/c3c(S(=O)(=O)O)cc4cc(S(=O)(=O)O)cc(N)c4c3O)c(C)c2)ccc1/N=N/c1c(S(=O)(=O)O)cc2cc(S(=O)(=O)O)cc(N)c2c1O` [D48, Trypan Blue], the Kd at peptide P2 is 11.9 ± 3.6 µM. For `CC(=O)NCC(=O)N[C@@H](CCCNC(=N)N)C(=O)N[C@H](C(=O)NCC(=O)N[C@@H](CCCNC(=N)N)C(=O)N[C@@H](CCCNC(=N)N)C(=O)N[C@@H](CNC(=O)Cc1ccc2ccc3cccc4ccc1c2c34)C(=O)N[C@@H](CO)C(=O)N[C@@H](Cc1ccc(O)cc1)C(=O)N1CCC[C@H]1C(N)=O)[C@@H](C)O` [P2, Ac-GRTGRRDap(Pyr)SYP-amide] (Ac-GRTGRR[Dap](Acetyl(1-pyrenyl))SYP-NH2), the “% Fluorescence Enhancement” value at PKA [2] came out at 51%. Consider `C[C@@H](O)[C@H](NC(=O)[C@H](CCCNC(=N)N)NC(=O)CNC(=O)CCCCCNC(=O)Cc1ccc2ccc3cccc4ccc1c2c34)C(=O)NCC(=O)N[C@@H](CCCNC(=N)N)C(=O)N[C@@H](CCCNC(=N)N)C(=O)N[C@@H](Cc1ccccc1)C(=O)N[C@@H](CO)C(=O)N[C@@H](Cc1ccc(O)cc1)C(=O)N1CCC[C@H]1C(N)=O` [P9], for which the “% Fluorescence Enhancement” value on PKA [2] stood at 48%. Regarding Ac-GRDap(Pyr)GRRFSYP-amide [P4], the “% Fluorescence Enhancement” value at PKA [2] is on record as 40%.

Turning to Ac-GRTDap(Pyr)RRFSYP-amide [P3], the “% Fluorescence Enhancement” value on PKA [2] is on record as 19%. The same measure, in the same setting: the same measure for Ac-GRTGRRFSDap(Pyr)P-amide [P1]: 0%. Turning to “AcGAla(Pyr)TGRRDap(Carminic acid)SLPA-amide (Ac-G[Ala(Pyr)]TGRR[Dap](Carminic acid)SLPA-NH2; reading uncertain) [P14]”, in the assay with PKA [3], the “change in fluorescence upon phosphorylation by PKA” value is on record as “No significant change in fluorescence”. Turning to “AcGAla(Pyr)TGRRDap(Reactive Blue 2)SLPA-amide [P13]”, on PKA [3], the “change in fluorescence upon phosphorylation by PKA” value is on record as “No significant change in fluorescence”. Further, at PKA [3] (in the presence of 14-3-3τ (2.1 μM)), the “increase in fluorescence upon phosphorylation by PKA” value is 1.5-2.3 fold.

In the case of Aniline Blue WS [D27], the Kd on peptide P9 was 0.6 ± 0.03 µM; at peptide P2, 18.1 ± 2.6 µM.
